The values that follow come from US4405608A, “Novel peptide” (Novo Industri A/S, priority 1981, dated 1983).

The data set in a line: Toxicology: repeated subcutaneous administration to cats. The conditions noted are these: repeated s.c. administration of increasing doses up to 16 μg/kg body weight. In kind it is in vivo.

No end group written: not given here.

For the sequence RSLQNTEEKSRSFPAPQTDPLDDPDQMTED [GRPP], the adverse effects result is reported as “did not cause any adverse effects”.
